The results in this text go back to US8859569B2, “Substituted annellated pyrimidines and use thereof” (Bayer Pharma Aktiengesellschaft, priority 2011, dated 2014).

One test has as its system aorta rings. Briefly: Vessel-relaxing action in vitro (aorta rings, phenylephrine contraction). Particulars: Oryctolagus cuniculus, concentration required to reduce phenylephrine-induced contraction of rabbit aorta rings by 50%. As to the method: B-1. Vessel-relaxing Action in vitro
Rabbits are stunned with a blow on the back of the neck and exsanguinated. The aorta is removed, freed from adhering tissue, separated into rings with a width of 1.5 mm, and placed individually, with preloading, in 5-ml organ baths with carbogen-gassed Krebs-Henseleit solution at 37° C. with the following composition (mM in each case): sodium chloride: 119; potassium chloride: 4.8; calcium chloride dihydrate: 1; magnesium sulphate heptahydrate: 1.4; potassium dihydrogen phosphate: 1.2; sodium hydrogen carbonate: 25; glucose: 10. The contraction force is recorded with Statham UC2 cells, amplified and digitized via an A/D converter (DAS-1802 HC, Keithley Instruments Munich) and recorded in parallel on a continuous-line recorder. To produce contraction, phenylephrine is added to the bath cumulatively in increasing concentration. After several control cycles, the test substance is added in increasing dosage in each subsequent pass and the level of contraction is compared with the level of contraction reached in the immediately preceding pass. This is used for calculating the concentration that is required to reduce the level of the control value by 50% (IC50 value). The standard application volume is 5 μl, and the proportion of DMSO in the bath solution corresponds to 0.1%.

Test [1] deals with T1, recombinant guanylate cyclase reporter cell line (Rattus norvegicus, UniProt P19686+P20595).
T1 construct: expressed in transfected cells
T1 sequence (P20595 1-619): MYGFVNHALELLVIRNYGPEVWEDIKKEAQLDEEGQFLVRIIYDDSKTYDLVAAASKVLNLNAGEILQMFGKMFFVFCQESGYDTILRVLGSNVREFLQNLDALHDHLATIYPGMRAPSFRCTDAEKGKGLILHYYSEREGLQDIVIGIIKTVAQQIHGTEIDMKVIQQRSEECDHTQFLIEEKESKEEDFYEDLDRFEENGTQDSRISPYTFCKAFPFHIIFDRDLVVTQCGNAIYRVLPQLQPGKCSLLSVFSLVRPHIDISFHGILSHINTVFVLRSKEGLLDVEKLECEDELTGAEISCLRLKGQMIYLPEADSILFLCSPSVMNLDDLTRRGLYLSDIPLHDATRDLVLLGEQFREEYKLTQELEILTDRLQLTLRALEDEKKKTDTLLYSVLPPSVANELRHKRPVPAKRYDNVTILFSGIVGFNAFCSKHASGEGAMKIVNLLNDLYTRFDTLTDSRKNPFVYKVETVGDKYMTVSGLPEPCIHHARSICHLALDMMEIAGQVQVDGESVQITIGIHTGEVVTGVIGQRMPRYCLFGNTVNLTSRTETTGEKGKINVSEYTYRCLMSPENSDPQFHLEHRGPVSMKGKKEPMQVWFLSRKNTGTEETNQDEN
T1 sequence (P19686 1-690): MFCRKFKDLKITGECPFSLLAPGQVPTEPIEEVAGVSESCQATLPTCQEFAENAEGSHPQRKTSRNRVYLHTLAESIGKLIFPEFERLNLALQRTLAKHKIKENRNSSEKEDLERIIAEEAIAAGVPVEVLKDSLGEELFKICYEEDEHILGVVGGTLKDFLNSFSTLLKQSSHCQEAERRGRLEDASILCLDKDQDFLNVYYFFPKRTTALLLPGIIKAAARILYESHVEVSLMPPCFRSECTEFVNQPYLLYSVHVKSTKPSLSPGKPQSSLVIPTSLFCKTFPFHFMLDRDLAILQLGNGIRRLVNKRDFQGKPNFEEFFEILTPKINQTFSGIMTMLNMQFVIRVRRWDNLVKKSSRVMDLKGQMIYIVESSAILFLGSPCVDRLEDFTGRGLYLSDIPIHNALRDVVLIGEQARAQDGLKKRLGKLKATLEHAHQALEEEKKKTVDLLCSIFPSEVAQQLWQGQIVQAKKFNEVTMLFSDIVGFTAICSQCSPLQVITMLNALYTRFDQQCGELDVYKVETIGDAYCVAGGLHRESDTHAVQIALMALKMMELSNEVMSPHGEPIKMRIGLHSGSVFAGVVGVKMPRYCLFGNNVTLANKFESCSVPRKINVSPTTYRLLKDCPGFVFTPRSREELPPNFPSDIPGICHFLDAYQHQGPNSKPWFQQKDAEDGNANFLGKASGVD
Nature of the test: Action on recombinant guanylate cyclase reporter cell line. The test is classed as cell-based. As to the method:
B-2. Action on Recombinant Guanylate Cyclase Reporter Cell Line
The cellular action of the compounds according to the invention is determined on a recombinant guanylate cyclase reporter cell line, as described in F. Wunder et al., Anal. Biochem. 339, 104-112 (2005).

The target of test [2] is T2, human phosphodiesterase 5 (PDE-5) (Homo sapiens, UniProt O76074).
T2 construct: PDE-5 preparations are obtained from human platelets by lysis; from tissue; host or cells: human platelets
Briefly: Inhibition of human phosphodiesterase 5 (PDE-5), SPA assay. The test is classed as biochemical. Particulars: PDE-5 preparation from human platelets, [8-3H]cGMP substrate. The method, boiled down:
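PDE-5 partially purified from human platelets by Mono Q chromatography, diluted so under 70% of [8-3H]cGMP (0.025 μCi) converted. Compounds at 4 μM to 0.0018 μM final, Tris-HCl pH 7.5 with MgCl2, 60 min at room temperature. Yttrium SPA beads stop reaction; IC50 from concentration–inhibition plots.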

In the case of `CC1(C)C(=O)Nc2nc(-c3nn(Cc4ccccc4F)c4ncc(F)cc34)nc(NCC3CC3(C)C)c21` (stereo not shown) [Example 99, 4-{[(2,2-Dimethylcyclopropyl)methyl]amino}-2-[5-fluoro-1-(2-fluorobenzyl)-1H-pyrazolo[3,4-b]pyridin-3-yl]-5,5-dimethyl-5,7-dihydro-6H-pyrrolo[2,3-d]pyrimidin-6-one], the IC50 in the test with aorta rings came out at 10000 nM; in test [2] it was 440 nM. In test [1], the “MEC (minimal effective concentration)” value is given as 0.3 μm.
Turning to `Cc1nc2c(cc1F)c(-c1nc(NCCC(F)(F)F)c3c(n1)NC(=O)C3(C)C)nn2Cc1ccccc1F` [Example 90, 2-[5-Fluoro-1-(2-fluorobenzyl)-6-methyl-1H-pyrazolo[3,4-b]pyridin-3-yl]-5,5-dimethyl-4-[(3,3,3-trifluoropropyl)amino]-5,7-dihydro-6H-pyrrolo[2,3-d]pyrimidin-6-one], the IC50 with aorta rings turned out to be 3070 nM; in test [2], 230 nM. Also, the “MEC (minimal effective concentration)” value in test [1] was 0.3 μm.
In the same order, the values of `CC1(C)C(=O)Nc2nc(-c3nn(Cc4ccccc4F)c4ncccc34)nc(-n3cccc(F)c3=O)c21` [Example 24, 2-[1-(2-Fluorobenzyl)-1H-pyrazolo[3,4-b]pyridin-3-yl]-4-(3-fluoro-2-oxopyridin-1(2H)-yl)-5,5-dimethyl-5,7-dihydro-6H-pyrrolo[2,3-d]pyrimidin-6-one] are 573 nM, 100 nM and 0.1 μm.
In the same order, the values of `CC1(C)C(=O)Nc2nc(-c3nn(Cc4ccccc4F)c4ncccc34)nc(N3CCOC(C(F)(F)F)C3)c21` (stereo not shown) [Example 32, 2-[1-(2-Fluorobenzyl)-1H-pyrazolo[3,4-b]pyridin-3-yl]-5,5-dimethyl-4-[2-(trifluoromethyl)morpholin-4-yl]-5,7-dihydro-6H-pyrrolo[2,3-d]pyrimidin-6-one] are 9160 nM, 720 nM and 1.0 μm.
The corresponding values for `CC1(C)C(=O)Nc2nc(-c3nn(Cc4ccccc4F)c4ncc(F)cc34)nc(NC(C3CC3)C3CC3)c21` [Example 9, 4-[(Dicyclopropylmethyl)amino]-2-[5-fluoro-1-(2-fluorobenzyl)-1H-pyrazolo[3,4-b]pyridin-3-yl]-5,5-dimethyl-5,7-dihydro-6H-pyrrolo[2,3-d]pyrimidin-6-one] are 21000 nM, 230 nM and 0.1 μm.
Turning to `CC1(C)C(=O)Nc2nc(-n3nc(Cc4ccccc4F)c4ccccc43)nc(O)c21` [Example 22, 2-[3-(2-Fluorobenzyl)-1H-indazol-1-yl]-4-hydroxy-5,5-dimethyl-5,7-dihydro-6H-pyrrolo[2,3-d]pyrimidin-6-one], the half-maximal inhibitory concentration (IC50) with aorta rings came to 530 nM; in test [2], 580 nM. Further, the “MEC (minimal effective concentration)” value in test [1] worked out at 0.03 μm.
In the same order, the values of `CC1(C)C(=O)Nc2nc(-c3nn(Cc4ccccc4F)c4ncc(F)cc34)nc(NCC(F)(F)F)c21` [Example 11, 2-[5-Fluoro-1-(2-fluorobenzyl)-1H-pyrazolo[3,4-b]pyridin-3-yl]-5,5-dimethyl-4-[(2,2,2-trifluoroethyl)amino]-5,7-dihydro-6H-pyrrolo[2,3-d]pyrimidin-6-one] are 663 nM, 48 nM and 0.3 μm.
In the same order, the values of `CC1C(=O)NCCN1c1nc(-c2nn(Cc3ccccc3F)c3ncccc23)nc2c1C(C)(C)C(=O)N2` (stereo not shown) [Example 92, 2-[1-(2-Fluorobenzyl)-1H-pyrazolo[3,4-b]pyridin-3-yl]-5,5-dimethyl-4-(2-methyl-3-oxopiperazin-1-yl)-5,7-dihydro-6H-pyrrolo[2,3-d]pyrimidin-6-one] are 520 nM, 170 nM and 0.3 μm.
The corresponding values for `CC1(C)C(=O)Nc2nc(-c3nn(Cc4ccccc4F)c4ncccc34)nc(OCC(F)(F)F)c21` [Example 115, 2-[1-(2-Fluorobenzyl)-1H-pyrazolo[3,4-b]pyridin-3-yl]-5,5-dimethyl-4-(2,2,2-trifluoroethoxy)-5,7-dihydro-6H-pyrrolo[2,3-d]pyrimidin-6-one] are 1630 nM, 250 nM and 0.3 μm.
As to `CC1(C)C(=O)Nc2nc(-c3nn(Cc4ncccc4F)c4ncc(F)cc34)nc(NCCC(F)(F)F)c21` [Example 12, 2-{5-Fluoro-1-[(3-fluoropyridin-2-yl)methyl]-1H-pyrazolo[3,4-b]pyridin-3-yl}-5,5-dimethyl-4-[(3,3,3-trifluoropropyl)amino]-5,7-dihydro-6H-pyrrolo[2,3-d]pyrimidin-6-one], the half-inhibitory concentration (IC50) in the test with aorta rings came out at 631 nM; in test [2] it was 50 nM. The “MEC (minimal effective concentration)” value in test [1] is 0.1 μm.
The corresponding values for `CC1(C)C(=O)Nc2nc(-c3nn(Cc4ccccc4F)c4ncccc34)nc(N3CC(N)C3)c21` [Example 107, 4-(3-Aminoazetidin-1-yl)-2-[1-(2-fluorobenzyl)-1H-pyrazolo[3,4-b]pyridin-3-yl]-5,5-dimethyl-5,7-dihydro-6H-pyrrolo[2,3-d]pyrimidin-6-one] are 700 nM, 100 nM and 1 μm.
Consider `CC1(C)C(=O)Nc2nc(-c3nn(Cc4ccccc4F)c4ncccc34)nc(OCCO)c21` [Example 117, 2-[1-(2-Fluorobenzyl)-1H-pyrazolo[3,4-b]pyridin-3-yl]-4-(2-hydroxyethoxy)-5,5-dimethyl-5,7-dihydro-6H-pyrrolo[2,3-d]pyrimidin-6-one], for which the concentration for half-maximal inhibition (IC50) in the test with aorta rings came to 38 nM; in test [2], 52 nM. Besides, in test [1], the “MEC (minimal effective concentration)” value is given as 0.03 μm.
For the molecule `CC1(C)C(=O)Nc2nc(-c3nn(Cc4ccccc4F)c4ncc(F)cc34)nc(NCC(N)C(F)(F)F)c21` (stereo not shown) [Example 6, 4-[(2-Amino-3,3,3-trifluoropropyl)amino]-2-[5-fluoro-1-(2-fluorobenzyl)-1H-pyrazolo[3,4-b]pyridin-3-yl]-5,5-dimethyl-5,7-dihydro-6H-pyrrolo[2,3-d]pyrimidin-6-one], the concentration for half-maximal inhibition (IC50) is 680 nM with aorta rings and 120 nM in test [2].
In the same order, the values of `CC1(C)C(=O)Nc2nc(-c3nn(Cc4cccc(F)c4F)c4ncc(F)cc34)nc(OCCC(F)(F)F)c21` [Example 110, 2-[1-(2,3-Difluorobenzyl)-5-fluoro-1H-pyrazolo[3,4-b]pyridin-3-yl]-5,5-dimethyl-4-(3,3,3-trifluoropropoxy)-5,7-dihydro-6H-pyrrolo[2,3-d]pyrimidin-6-one] are 10000 nM and 840 nM.
